Test results from the NIST ThermoML archive (doi:10.1021/acs.jced.6b00269).
Numbers after ± are expanded uncertainties.

Conditions: for viscosity / mass density: 101.33 kPa, Liquid; for viscosity: Cone and plate viscometry; for mass density: Vibrating tube method; for Glass transition temperature: DSC; for Normal melting temperature: Crystal, DTA

Structure (SMILES) | viscosity (278.15 K) [mPa·s] | viscosity (283.15 K) [mPa·s] | mass density (283.15 K) [kg/m3] | viscosity (288.15 K) [mPa·s] | mass density (288.15 K) [kg/m3] | viscosity (293.15 K) [mPa·s] | mass density (293.15 K) [kg/m3] | mass density (295.15 K) [kg/m3] | viscosity (298.15 K) [mPa·s] | mass density (298.15 K) [kg/m3] | viscosity (303.15 K) [mPa·s] | mass density (303.15 K) [kg/m3] | mass density (308.15 K) [kg/m3] | mass density (313.15 K) [kg/m3] | mass density (318.15 K) [kg/m3] | mass density (323.15 K) [kg/m3] | mass density (328.15 K) [kg/m3] | mass density (333.15 K) [kg/m3] | mass density (338.15 K) [kg/m3] | mass density (343.15 K) [kg/m3] | other results
CCC=Cn1cc[n+](C)c1C.O=[N+]([O-])c1cn[n-]c1 [1-but-1-enyl-2,3-dimethylimidazolium 4-nitropyrazolide] | 6650 ± 750 | 3260 ± 340 | 1191.5 ± 7.7 | 1720 ± 170 | 1187.7 ± 7.7 | 973 ± 86 | 1184.2 ± 7.6 | 1182.8 ± 7.6 | 590 ± 48 | 1180.8 ± 7.6 | 380 ± 29 | 1177.5 ± 7.5 | 1174.1 ± 7.5 | 1170.8 ± 7.5 | 1167.6 ± 7.4 | 1164.4 ± 7.4 | 1161.1 ± 7.3 | 1157.9 ± 7.3 | 1154.7 ± 7.2 | 1151.5 ± 7.2 | viscosity (308.15 K): 255 ± 19 mPa·s; viscosity (313.15 K): 179 ± 13 mPa·s; viscosity (318.15 K): 131 ± 9 mPa·s; viscosity (323.15 K): 99 ± 7 mPa·s; viscosity (328.15 K): 77 ± 5 mPa·s; viscosity (333.15 K): 62 ± 4 mPa·s; viscosity (338.15 K): 50 ± 3 mPa·s; mass density (348.15 K): 1148.3 ± 7.2 kg/m3; mass density (353.15 K): 1145.2 ± 7.1 kg/m3; Glass transition temperature: -53 ± 2 °C
CCCCCC[n+]1ccn(C)c1.O=S(=O)([N-]S(=O)(=O)C(F)(F)F)C(F)(F)F | 203 ± 14 | 150 ± 10 | 1386.6 ± 10 | 113 ± 8 | 1382.1 ± 10 | 87 ± 6 | 1377.5 ± 10 | 1375.7 ± 10 | 68 ± 5 | 1372.9 ± 10 | 55 ± 4 | 1368.4 ± 10 | 1363.8 ± 10 | 1359.3 ± 10 | 1354.8 ± 10 | 1350.3 ± 10 | 1345.8 ± 9.9 | 1341.3 ± 9.8 | 1336.8 ± 9.8 | 1332.4 ± 9.7 | mass density (348.15 K): 1327.9 ± 9.6 kg/m3; mass density (353.15 K): 1323.5 ± 9.6 kg/m3
CC[P+](CC)(CC)COCCOC.O=[N+]([O-])c1cn[n-]c1 | 309 ± 23 | 216 ± 16 | 1149.2 ± 7.2 | 156 ± 11 | 1145.8 ± 7.1 | 116 ± 8 | 1142.4 ± 7.1 | 1141 ± 7.1 | 88 ± 6 | 1139 ± 7 | 69 ± 5 | 1135.6 ± 7 | 1132.2 ± 7 | 1128.9 ± 6.9 | 1125.5 ± 6.9 | 1122.2 ± 6.8 | 1118.9 ± 6.8 | 1115.6 ± 6.8 | 1112.3 ± 6.7 | 1109.1 ± 6.7 | viscosity (308.15 K): 55 ± 4 mPa·s; mass density (348.15 K): 1105.8 ± 6.6 kg/m3; mass density (353.15 K): 1102.6 ± 6.6 kg/m3; Normal melting temperature: -15 ± 2 °C; Glass transition temperature: -76 ± 2 °C
CCCCCCCC[P+](CC)(CC)CC.O=[N+]([O-])c1cn[n-]c1 [triethyloctylphosphonium 4-nitropyrazolide] | 1100 ± 100 | 716 ± 60 | 1040.1 ± 5.9 | 480 ± 38 | 1037 ± 5.8 | 333 ± 25 | 1033.9 ± 5.8 | 1032.7 ± 5.8 | 238 ± 17 | 1030.9 ± 5.7 | 175 ± 12 | 1027.9 ± 5.7 | 1024.9 ± 5.7 | 1022 ± 5.6 | 1019 ± 5.6 | 1016.1 ± 5.6 | 1013.2 ± 5.5 | 1010.2 ± 5.5 | 1007.3 ± 5.5 | 1004.4 ± 5.4 | viscosity (308.15 K): 133 ± 9 mPa·s; viscosity (313.15 K): 103 ± 7 mPa·s; viscosity (318.15 K): 81 ± 5 mPa·s; viscosity (323.15 K): 65 ± 4 mPa·s; viscosity (328.15 K): 53 ± 4 mPa·s; mass density (348.15 K): 1001.5 ± 5.4 kg/m3; mass density (353.15 K): 998.6 ± 5.4 kg/m3; Normal melting temperature: 5 ± 2 °C; Glass transition temperature: -72 ± 2 °C
CC[P+](CC)(CC)COCCOC.O=S(=O)([N-]S(=O)(=O)C(F)(F)F)C(F)(F)F | 84 ± 6 | 65 ± 4 | 1373.9 ± 10 | 51 ± 3 | 1369.4 ± 10 |  | 1364.8 ± 10 | 1363 ± 10 |  | 1360.3 ± 10 |  | 1355.7 ± 10 | 1351.2 ± 10 | 1346.8 ± 9.9 | 1342.3 ± 9.8 | 1337.9 ± 9.8 | 1333.4 ± 9.7 | 1329 ± 9.6 | 1324.6 ± 9.6 | 1320.2 ± 9.5 | mass density (348.15 K): 1315.8 ± 9.4 kg/m3; mass density (353.15 K): 1311.5 ± 9.4 kg/m3
CCOCc1n(CC)cc[n+]1C.O=S(=O)([N-]S(=O)(=O)C(F)(F)F)C(F)(F)F | 207 ± 15 | 149 ± 10 |  | 111 ± 8 |  | 85 ± 6 |  |  | 66 ± 4 |  | 53 ± 4 |  |  |  |  |  |  |  |  |  | Glass transition temperature: -78 ± 2 °C
CCCCCCCC[P+](CC)(CC)CC.O=S(=O)([N-]S(=O)(=O)C(F)(F)F)C(F)(F)F [triethyloctylphosphonium bis(trifluoromethylsulfonyl)imide] | 379 ± 29 | 268 ± 20 | 1256.3 ± 8.6 | 194 ± 14 | 1252.2 ± 8.5 | 145 ± 10 | 1248.1 ± 8.5 | 1246.6 ± 8.5 | 111 ± 8 | 1244.2 ± 8.4 | 87 ± 6 | 1240.2 ± 8.4 | 1236.2 ± 8.3 | 1232.2 ± 8.3 | 1228.2 ± 8.2 | 1224.2 ± 8.2 | 1220.2 ± 8.1 | 1216.3 ± 8.1 | 1212.3 ± 8 | 1208.4 ± 7.9 | viscosity (308.15 K): 73 ± 5 mPa·s; viscosity (313.15 K): 57 ± 4 mPa·s; mass density (348.15 K): 1204.4 ± 7.9 kg/m3; mass density (353.15 K): 1200.5 ± 7.8 kg/m3
CCCC[S+]1CCCC1.O=S(=O)([N-]S(=O)(=O)C(F)(F)F)C(F)(F)F | 284 ± 21 | 206 ± 15 | 1469 ± 12 | 153 ± 11 | 1464.3 ± 12 | 117 ± 8 | 1459.7 ± 12 | 1457.8 ± 12 | 91 ± 6 | 1455 ± 12 | 73 ± 5 | 1450.4 ± 12 | 1445.7 ± 11 | 1441.1 ± 11 | 1436.5 ± 11 | 1431.9 ± 11 | 1427.3 ± 11 | 1422.7 ± 11 | 1418.2 ± 11 | 1413.6 ± 11 | viscosity (308.15 K): 59 ± 4 mPa·s; mass density (348.15 K): 1409.1 ± 11 kg/m3; mass density (353.15 K): 1404.6 ± 11 kg/m3; Glass transition temperature: -83 ± 2 °C
CCCCCCn1cc[n+](C)c1.N#Cc1ccc[n-]1 [1-hexyl-3-methylimidazolium 2-cyanopyrrolide] | 1540 ± 140 | 902 ± 78 | 1031 ± 5.7 | 553 ± 45 | 1027.9 ± 5.7 | 355 ± 27 | 1024.9 ± 5.7 | 1023.6 ± 5.7 | 239 ± 17 | 1021.8 ± 5.6 | 167 ± 12 | 1018.8 ± 5.6 | 1015.8 ± 5.6 | 1012.8 ± 5.5 | 1009.9 ± 5.5 | 1006.9 ± 5.5 | 1003.9 ± 5.4 | 1001 ± 5.4 | 998 ± 5.4 | 995.1 ± 5.3 | viscosity (308.15 K): 122 ± 8 mPa·s; viscosity (313.15 K): 91 ± 6 mPa·s; viscosity (318.15 K): 70 ± 5 mPa·s; viscosity (323.15 K): 55 ± 4 mPa·s; mass density (348.15 K): 992.1 ± 5.3 kg/m3; mass density (353.15 K): 989.1 ± 5.3 kg/m3; Glass transition temperature: -65 ± 2 °C
